{"source": "PubChem BioAssay AID1845202", "about": "(Molecular Pharmacology Branch, DTP, NCI, 2023)", "system": "DMS 114 tumor spheroids, viability % test/control", "test": "Anticancer human tumor DMS 114 cell line growth inhibition;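 as to all read-outs here: spheroids exposed to compounds for 7 days before read-out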;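 as to viability, T/C: luminescence used as a proxy for viable cells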", "conditions": "spheroids with HUVEC and MSC; for viability, T/C: stronger effect = lower value", "outline": "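Complex spheroids of malignant cells with endothelial cells and mesenchymal stem cells; agents alone or combined, from near clinical Cmax (or 10 microM if unknown) down in half-log steps, 0.25% DMSO final.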", "key": {"[1]": {"conditions": "curve of first compound, second compound 1 µM"}, "[2]": {"conditions": "curve of first compound, second compound 3.16 µM"}, "[3]": {"conditions": "curve of first compound, second compound 10 µM"}, "[4]": {"conditions": "curve of first compound, second compound 31.6 µM"}, "[5]": {"conditions": "curve of first compound, second compound 100 µM"}}, "note": "Values joined by “and” are separate entries in the source; they are usually repeats but may differ in a detail not shown here. Equal values may be shown once."}
{"compound": "Cc1sc2c(c1C)C(c1ccc(Cl)cc1)=NC(CC(=O)Nc1ccc(O)cc1)c1nnc(C)n1-2", "note": "(configuration not stated) + Cn1nnc2c(C(N)=O)ncn2c1=O", "values": [{"measurement": "IC50", "setting": "[1]", "result": 158, "unit": "nM"}, {"measurement": "IC50", "setting": "[2]", "result": 194, "unit": "nM"}, {"measurement": "IC50", "setting": "[3]", "result": 170, "unit": "nM"}, {"measurement": "IC50", "setting": "[4]", "result": 167, "unit": "nM"}, {"measurement": "IC50", "setting": "[5]", "result": 116, "unit": "nM"}, {"measurement": "viability, T/C", "setting": "second compound 1 µM, first compound 0.00949 µM", "result": 98.8, "unit": "%"}, {"measurement": "viability, T/C", "setting": "second compound 1 µM, first compound 0.03 µM", "result": 101, "unit": "%"}, {"measurement": "viability, T/C", "setting": "second compound 1 µM, first compound 0.0949 µM", "result": 64.5, "unit": "%"}, {"measurement": "viability, T/C", "setting": "second compound 1 µM, first compound 0.3 µM", "result": 29.9, "unit": "%"}, {"measurement": "viability, T/C", "setting": "second compound 1 µM, first compound 0.949 µM", "result": 11.3, "unit": "%"}, {"measurement": "viability, T/C", "setting": "second compound 1 µM, first compound 3 µM", "result": 6.69, "unit": "%"}, {"measurement": "viability, T/C", "setting": "second compound 3.16 µM, first compound 0.00949 µM", "result": 104, "unit": "%"}, {"measurement": "viability, T/C", "setting": "second compound 3.16 µM, first compound 0.03 µM", "result": 103, "unit": "%"}, {"measurement": "viability, T/C", "setting": "second compound 3.16 µM, first compound 0.0949 µM", "result": 81.4, "unit": "%"}, {"measurement": "viability, T/C", "setting": "second compound 3.16 µM, first compound 0.3 µM", "result": 30.7, "unit": "%"}, {"measurement": "viability, T/C", "setting": "second compound 3.16 µM, first compound 0.949 µM", "result": 10.7, "unit": "%"}, {"measurement": "viability, T/C", "setting": "second compound 3.16 µM, first compound 3 µM", "result": 6.68, "unit": "%"}, {"measurement": "viability, T/C", "setting": "second compound 10 µM, first compound 0.00949 µM", "result": 102, "unit": "%"}, {"measurement": "viability, T/C", "setting": "second compound 10 µM, first compound 0.03 µM", "result": 108, "unit": "%"}, {"measurement": "viability, T/C", "setting": "second compound 10 µM, first compound 0.0949 µM", "result": 71.6, "unit": "%"}, {"measurement": "viability, T/C", "setting": "second compound 10 µM, first compound 0.3 µM", "result": 28.1, "unit": "%"}, {"measurement": "viability, T/C", "setting": "second compound 10 µM, first compound 0.949 µM", "result": 10.7, "unit": "%"}, {"measurement": "viability, T/C", "setting": "second compound 10 µM, first compound 3 µM", "result": 4.92, "unit": "%"}, {"measurement": "viability, T/C", "setting": "second compound 31.6 µM, first compound 0.00949 µM", "result": 114, "unit": "%"}, {"measurement": "viability, T/C", "setting": "second compound 31.6 µM, first compound 0.03 µM", "result": 100, "unit": "%"}, {"measurement": "viability, T/C", "setting": "second compound 31.6 µM, first compound 0.0949 µM", "result": 71, "unit": "%"}, {"measurement": "viability, T/C", "setting": "second compound 31.6 µM, first compound 0.3 µM", "result": 28.6, "unit": "%"}, {"measurement": "viability, T/C", "setting": "second compound 31.6 µM, first compound 0.949 µM", "result": 9.45, "unit": "%"}, {"measurement": "viability, T/C", "setting": "second compound 31.6 µM, first compound 3 µM", "result": 4.67, "unit": "%"}, {"measurement": "viability, T/C", "setting": "second compound 100 µM, first compound 0.00949 µM", "result": 93.9, "unit": "%"}, {"measurement": "viability, T/C", "setting": "second compound 100 µM, first compound 0.03 µM", "result": 93, "unit": "%"}, {"measurement": "viability, T/C", "setting": "second compound 100 µM, first compound 0.0949 µM", "result": 55.1, "unit": "%"}, {"measurement": "viability, T/C", "setting": "second compound 100 µM, first compound 0.3 µM", "result": 18.9, "unit": "%"}, {"measurement": "viability, T/C", "setting": "second compound 100 µM, first compound 0.949 µM", "result": 6.62, "unit": "%"}, {"measurement": "viability, T/C", "setting": "second compound 100 µM, first compound 3 µM", "result": 2.68, "unit": "%"}]}
{"compound": "CC1COCCN1c1cc(-c2ccnn2C)c2ccnc(-c3ccn[nH]3)c2n1", "note": "(configuration not stated) + Cn1nnc2c(C(N)=O)ncn2c1=O", "values": [{"measurement": "IC50", "setting": "[1]", "result": 44.3, "unit": "nM"}, {"measurement": "IC50", "setting": "[2]", "result": 55.8, "unit": "nM"}, {"measurement": "IC50", "setting": "[3]", "result": 33.9, "unit": "nM"}, {"measurement": "IC50", "setting": "[4]", "result": "< 31.6", "unit": "nM"}, {"measurement": "IC50", "setting": "[5]", "result": "< 31.6", "unit": "nM"}, {"measurement": "viability, T/C", "setting": "second compound 1 µM, first compound 0.0316 µM", "result": 56.6, "unit": "%"}, {"measurement": "viability, T/C", "setting": "second compound 1 µM, first compound 0.1 µM", "result": 33.9, "unit": "%"}, {"measurement": "viability, T/C", "setting": "second compound 1 µM, first compound 0.316 µM", "result": 22.8, "unit": "%"}, {"measurement": "viability, T/C", "setting": "second compound 1 µM, first compound 1 µM", "result": 11.8, "unit": "%"}, {"measurement": "viability, T/C", "setting": "second compound 1 µM, first compound 3.16 µM", "result": 10.1, "unit": "%"}, {"measurement": "viability, T/C", "setting": "second compound 1 µM, first compound 10 µM", "result": 10.4, "unit": "%"}, {"measurement": "viability, T/C", "setting": "second compound 3.16 µM, first compound 0.0316 µM", "result": 63, "unit": "%"}, {"measurement": "viability, T/C", "setting": "second compound 3.16 µM, first compound 0.1 µM", "result": 35.4, "unit": "%"}, {"measurement": "viability, T/C", "setting": "second compound 3.16 µM, first compound 0.316 µM", "result": 24.9, "unit": "%"}, {"measurement": "viability, T/C", "setting": "second compound 3.16 µM, first compound 1 µM", "result": 13.2, "unit": "%"}, {"measurement": "viability, T/C", "setting": "second compound 3.16 µM, first compound 3.16 µM", "result": 9.36, "unit": "%"}, {"measurement": "viability, T/C", "setting": "second compound 3.16 µM, first compound 10 µM", "result": 10.9, "unit": "%"}, {"measurement": "viability, T/C", "setting": "second compound 10 µM, first compound 0.0316 µM", "result": 51, "unit": "%"}, {"measurement": "viability, T/C", "setting": "second compound 10 µM, first compound 0.1 µM", "result": 35.5, "unit": "%"}, {"measurement": "viability, T/C", "setting": "second compound 10 µM, first compound 0.316 µM", "result": 21.7, "unit": "%"}, {"measurement": "viability, T/C", "setting": "second compound 10 µM, first compound 1 µM", "result": 11.9, "unit": "%"}, {"measurement": "viability, T/C", "setting": "second compound 10 µM, first compound 3.16 µM", "result": 10.2, "unit": "%"}, {"measurement": "viability, T/C", "setting": "second compound 10 µM, first compound 10 µM", "result": 11.7, "unit": "%"}, {"measurement": "viability, T/C", "setting": "second compound 31.6 µM, first compound 0.0316 µM", "result": 36.9, "unit": "%"}, {"measurement": "viability, T/C", "setting": "second compound 31.6 µM, first compound 0.1 µM", "result": 30.3, "unit": "%"}, {"measurement": "viability, T/C", "setting": "second compound 31.6 µM, first compound 0.316 µM", "result": 20.5, "unit": "%"}, {"measurement": "viability, T/C", "setting": "second compound 31.6 µM, first compound 1 µM", "result": 13.5, "unit": "%"}, {"measurement": "viability, T/C", "setting": "second compound 31.6 µM, first compound 3.16 µM", "result": 9.89, "unit": "%"}, {"measurement": "viability, T/C", "setting": "second compound 31.6 µM, first compound 10 µM", "result": 10.1, "unit": "%"}, {"measurement": "viability, T/C", "setting": "second compound 100 µM, first compound 0.0316 µM", "result": 24, "unit": "%"}, {"measurement": "viability, T/C", "setting": "second compound 100 µM, first compound 0.1 µM", "result": 21.3, "unit": "%"}, {"measurement": "viability, T/C", "setting": "second compound 100 µM, first compound 0.316 µM", "result": 16.1, "unit": "%"}, {"measurement": "viability, T/C", "setting": "second compound 100 µM, first compound 1 µM", "result": 10.8, "unit": "%"}, {"measurement": "viability, T/C", "setting": "second compound 100 µM, first compound 3.16 µM", "result": 8.42, "unit": "%"}, {"measurement": "viability, T/C", "setting": "second compound 100 µM, first compound 10 µM", "result": 10.2, "unit": "%"}]}
{"compound": "COc1cc(C)[nH]c(=O)c1CN1CCc2c(Cl)cc(C(OC)C3COC3)c(Cl)c2C1=O", "note": "(configuration not stated)", "values": [{"measurement": "viability, T/C", "setting": "compound 0.0316 µM", "result": "99.2% and 104% and 106%"}, {"measurement": "viability, T/C", "setting": "compound 0.1 µM", "result": "92.3% and 96.3% and 96.5%"}, {"measurement": "viability, T/C", "setting": "compound 0.316 µM", "result": "84.5% and 87.3% and 86.1%"}, {"measurement": "viability, T/C", "setting": "compound 1 µM", "result": "78% and 79.3% and 78.8%"}, {"measurement": "viability, T/C", "setting": "compound 3.16 µM", "result": "72.8% and 77.8% and 73.3%"}, {"measurement": "viability, T/C", "setting": "compound 10 µM", "result": "72.2% and 72.6% and 72.4%"}, {"measurement": "IC50", "setting": "curve of compound", "result": "> 10000", "unit": "nM"}]}
